According to patent US9840512B2, “Antidiabetic bicyclic compounds” (Merck Sharp & Dohme Corp., priority 2013, dated 2017):

target: human GPR40 (Homo sapiens, UniProt O14842); test: Inositol Phosphate Turnover (IP1) Assay 2; type: cell-based; set-up: expressed in transfected cells; conditions: HEK cells stably expressing human GPR40, Table 2, read-out: Human IP1
Procedure: Human and mouse GPR40 stable cell-lines were generated in CHO cells stably expressing NFAT BLA (Beta-lactamase). A human GPR40 stable cell-line was generated in HEK cells stably expressing the aequorin expressing reporter. The expression plasmids were transfected using lipofectamine (Life Technologies) following manufacturer's instructions. Stable cell-lines were generated following drug selection.
The assay is performed in 384-well format. HEK cells stably expressing human GPR40 are plated at 15,000 cells per well in growth medium (DMEM/10% fetal calf serum). Cell plates are then incubated 16 hours at 37 degrees in a 5% CO2 incubator.
Measurement of Inositol Phosphate Turnover (IP1) is performed using the CisBio IP-One kit (Part number 62IPAPEB). After the 16 hour incubation, the cells are washed with HEPES buffer and 10 ul of stimulation buffer (prepared as described in the kit) is added to each well. In a separate plate, compounds are diluted in DMSO (400-fold over the final concentration in the assay well) and 25 nl is acoustically transferred to the appropriate well in the assay cell plate. The plates are then incubated for 60 minutes at 37 degrees. 10 ul of detection buffer (also prepared as described in the IP-One kit) is added to each well and the plates are incubated for 60 minutes in the dark. The plates are then read in a Perkin Elmer EnVision or equivalent reader able to measure FRET.

Sequence of human GPR40 (O14842 whole entry): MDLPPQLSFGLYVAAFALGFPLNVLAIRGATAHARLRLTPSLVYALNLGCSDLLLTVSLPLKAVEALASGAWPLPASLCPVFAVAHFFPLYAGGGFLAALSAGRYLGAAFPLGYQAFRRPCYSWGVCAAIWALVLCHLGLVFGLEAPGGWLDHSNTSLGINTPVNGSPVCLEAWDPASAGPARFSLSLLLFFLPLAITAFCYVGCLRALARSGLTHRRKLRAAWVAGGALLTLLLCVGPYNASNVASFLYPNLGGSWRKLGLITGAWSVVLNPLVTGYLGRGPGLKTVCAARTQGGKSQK

In order of rising EC50:
1. COc1ccc(F)c(-c2ccc(C3CCc4ccc(C(C5CCC5)C(C)C(=O)O)cc4O3)cc2)c1 (single isomer, unassigned) [Example 155]  1 nM
2. COc1ccc(F)c(-c2ccc(C3CCc4ccc(C(C5CCC5)C(C)C(=O)O)cc4O3)cc2)c1 (single isomer, unassigned) [Example 159]  1.8 nM
3. COc1ccc(F)c(-c2ccc(C3CCc4ccc(C(C)C(C)C(=O)O)cc4O3)cc2)c1 (single isomer, unassigned) [Example 147a]  9 nM
4. COc1cc(-c2ccc(C3CCc4ccc([C@@H](CC(=O)O)C5CC5)cc4O3)cc2)c(F)cn1 (stereo partly drawn) [Example 71]  11 nM
5. COc1ccc(F)c(-c2ccc(C3CCc4ccc(C(C)C(C)C(=O)O)cc4O3)cc2)c1 (single isomer, unassigned) [Example 142]  13 nM
6. COc1cc(-c2ccc(C3CCc4ccc([C@@H](CC(=O)O)C5CC5)cc4O3)cc2)ccn1 (stereo partly drawn) [Example 74]  19 nM
7. COc1ccc(F)c(-c2ccc(C3CCc4ccc(C(C5CCC5)C(C)C(=O)O)cc4O3)cc2)c1 (single isomer, unassigned) [Example 153]  22 nM
8. COc1cccc(-c2ccc(C3CCc4ccc([C@@H](CC(=O)O)C5CC5)cc4O3)cc2)c1 (stereo partly drawn) [Example 79]  22 nM
9. COc1ccc(F)c(-c2ccc(C3CCc4ccc([C@@H](CC(=O)O)C5CC5)cc4O3)cc2)c1 (stereo partly drawn) [Example 60, (3S)-3-cyclopropyl-3-(2-(2′-fluoro-5′-methoxy-[1,1′-biphenyl]-4-yl)chroman-7-yl)propanoic acid]  25 nM
10. COc1ccc(F)c(-c2ccc([C@H]3CCc4ccc([C@@H](CC(=O)O)C5CCC5)cc4O3)cc2)c1 (single isomer, unassigned) [Example 149, (3S)-3-cyclobutyl-3-((R or S)-(2-(2′-fluoro-5′-methoxy-[1,1′-biphenyl]-4-yl)chroman-7-yl)propanoic acid]  41 nM
11. COc1ccc(F)c(-c2ccc(C3CCc4ccc([C@@H](CC(=O)O)C5CC5)cc4O3)cc2)c1F (stereo partly drawn) [Example 82]  54 nM
12. COc1ccc(F)c(-c2ccc(C3CCc4ccc(C(C)C(C)C(=O)O)cc4O3)cc2)c1 (single isomer, unassigned) [Example 145]  77 nM
13. COc1ccc(F)c(-c2ccc([C@@H]3CCc4ccc([C@@H](CC(=O)O)C5CCC5)cc4O3)cc2)c1 (single isomer, unassigned) [Example 151, (3S)-3-cyclobutyl-3-((R or S)-(2-(2′-fluoro-5′-methoxy-[1,1′-biphenyl]-4-yl)chroman-7-yl)propanoic acid]  79 nM
14. COc1ccc(F)c(-c2ccc(C3CCc4ccc(C(C5CCC5)C(C)C(=O)O)cc4O3)cc2)c1 (single isomer, unassigned) [Example 154]  86 nM
15. COc1ccc(F)c(-c2ccc(C3CCc4ccc(C(C5CCC5)C(C)C(=O)O)cc4O3)cc2)c1 (single isomer, unassigned) [Example 157]  90 nM
16. COc1cc(F)cc(-c2ccc(C3CCc4ccc([C@@H](CC(=O)O)C5CC5)cc4O3)cc2)c1 (stereo partly drawn) [Example 72]  116 nM
17. COc1ccc(F)c(-c2ccc(C3CCc4ccc(C(C5CCC5)C(C)C(=O)O)cc4O3)cc2)c1 (single isomer, unassigned) [Example 158]  132 nM
18. COc1ccc(F)c(-c2ccc(C3CCc4ccc(C(C)C(C)C(=O)O)cc4O3)cc2)c1 (single isomer, unassigned) [Example 147c]  138 nM
19. CSc1cccc(-c2ccc(C3CCc4ccc([C@@H](CC(=O)O)C5CC5)cc4O3)cc2)c1 (stereo partly drawn) [Example 81]  165 nM
20. COc1ccc(F)c(-c2ccc(C3CCc4ccc(C(C5CCC5)C(C)C(=O)O)cc4O3)cc2)c1 (single isomer, unassigned) [Example 156]  209 nM
21. COc1ccc(F)c(-c2ccc(C3CCc4ccc(C(C)C(C)C(=O)O)cc4O3)cc2)c1 (single isomer, unassigned) [Example 143]  252 nM
22. COc1ccc(F)c(-c2ccc(C3CCc4ccc(C(C)C(C)C(=O)O)cc4O3)cc2)c1 (single isomer, unassigned) [Example 146]  270 nM
23. COc1cccc(-c2ccc(C3CCc4ccc([C@@H](CC(=O)O)C5CC5)cc4O3)cc2)n1 (stereo partly drawn) [Example 75]  304 nM
24. COc1ccc(F)c(-c2ccc(C3CCc4ccc(C(C)CC(=O)O)cc4O3)cc2)c1 (single isomer, unassigned) [Example 141]  354 nM
25. COc1ccc(F)c(-c2ccc(C3CCc4ccc([C@H](CC(=O)O)C5CCC5)cc4O3)cc2)c1 (single isomer, unassigned) [Example 148, (3R)-3-cyclobutyl-3-((R or S)-(2-(2′-fluoro-5′-methoxy-[1,1′-biphenyl]-4-yl)chroman-7-yl)propanoic acid]  398 nM
26. O=C(O)C[C@H](c1ccc2c(c1)OC(c1ccc(-c3cc(OC(F)(F)F)ccc3F)cc1)CC2)C1CC1 (stereo partly drawn) [Example 76]  650 nM
27. COc1ccc(F)c(-c2ccc([C@H]3CCc4ccc([C@H](CC(=O)O)C5CCC5)cc4O3)cc2)c1 (single isomer, unassigned) [Example 150, (3R)-3-cyclobutyl-3-((R or S)-(2-(2′-fluoro-5′-methoxy-[1,1′-biphenyl]-4-yl)chroman-7-yl)propanoic acid]  660 nM
28. COc1ccc(F)c(-c2ccc(C3CCc4ccc(C(C5CCC5)C(C)C(=O)O)cc4O3)cc2)c1 (single isomer, unassigned) [Example 152, (2S,3S)-3-cyclobutyl-3-((R or S)-2-(2′-fluoro-5′-methoxy-[1,1′-biphenyl]-4-yl)chroman-7-yl)-2-methylpropanoic acid]  774 nM
29. COc1cncc(-c2ccc(C3CCc4ccc([C@@H](CC(=O)O)C5CC5)cc4O3)cc2)n1 (stereo partly drawn) [Example 77]  920 nM
30. O=C(O)C[C@H](c1ccc2c(c1)OC(c1ccc(-c3cccc(OCC(F)(F)F)c3)cc1)CC2)C1CC1 (stereo partly drawn) [Example 73]  1200 nM
31. COc1ccc(F)c(-c2ccc(C3CCc4ccc(C(C)C(C)C(=O)O)cc4O3)cc2)c1 (single isomer, unassigned) [Example 144]  1420 nM
32. CCOc1cc(-c2ccc(C3CCc4ccc([C@@H](CC(=O)O)C5CC5)cc4O3)cc2)ccc1F (stereo partly drawn) [Example 84]  1520 nM
33. O=C(O)C[C@H](c1ccc2c(c1)OC(c1ccc(-c3cccc(OC4CC4)c3)cc1)CC2)C1CC1 (stereo partly drawn) [Example 78]  1700 nM
34. COc1ccc(F)c(-c2ccc(C3CCc4ccc(C(C)C(C)C(=O)O)cc4O3)cc2)c1 (single isomer, unassigned) [Example 147b]  3180 nM

same assay, conditions: HEK cells stably expressing human GPR40, Table 3, read-out: Human IP1 activity

In order of rising EC50:
1. COc1ccc(F)c(-c2ccc(C3COc4ccc([C@H](C5CC5)[C@H](C)C(=O)O)cc4O3)cc2)c1 (single isomer, unassigned) [Example 174]  0.5 nM
2. COc1ccc(F)c(-c2ccc(C3COc4ccc([C@H](C5CC5)[C@H](C)C(=O)O)cc4O3)nc2)c1 (single isomer, unassigned) [Example 160]  1.6 nM
3. COc1ccc(F)c(-c2ccc(C3COc4ccc([C@H](C5CC5)[C@H](C)C(=O)O)cc4O3)cc2)c1 (single isomer, unassigned) [Example 173]  1.8 nM
4. COc1ccc(F)c(-c2ccc(C3COc4ccc([C@H](C5CC5)[C@H](C)C(=O)O)c(F)c4O3)cc2)c1 (single isomer, unassigned) [Example 185]  2 nM
5. COc1ccc(F)c(-c2ccc(C3COc4ccc([C@H](C5CC5)[C@H](C)C(=O)O)cc4O3)nc2)c1 (single isomer, unassigned) [Example 161]  2.2 nM
6. COc1ccc(F)c(-c2ccc(C3COc4ccc([C@H](C5CC5)[C@H](C)C(=O)O)cc4O3)cc2OC(F)(F)F)c1 (single isomer, unassigned) [Example 171]  2.6 nM
7. C[C@H](C(=O)O)[C@H](c1ccc2c(c1)OC(C1CN(Cc3cc(C(F)(F)F)ccc3C(F)(F)F)C1)CO2)C1CC1 (single isomer, unassigned) [Example 188]  5.2 nM
8. COc1ccc(F)c(-c2ccc(C3COc4ccc([C@H](C5CC5)[C@H](C)C(=O)O)cc4O3)cc2OC(F)(F)F)c1 (single isomer, unassigned) [Example 172]  6.9 nM
9. COc1ccc(F)c(-c2ccc(C3COc4ccc([C@H](C5CC5)[C@H](C)C(=O)O)c(F)c4O3)cc2)c1 (single isomer, unassigned) [Example 186]  7.9 nM
10. COc1ccc(F)c(-c2ccc(C3COc4ccc([C@@H](CC(=O)O)C5CC5)cc4O3)cc2)c1 (single isomer, unassigned) [Example 167]  31 nM
11. COc1ccc(F)c(-c2ccc(C3COc4ccc([C@@H](CC(=O)O)C5CC5)cc4O3)cc2)c1 (single isomer, unassigned) [Example 168]  120 nM
12. CC#C[C@@H](CC(=O)O)c1ccc2c(c1)OCC(c1ccc(-c3cc(OC)ccc3F)cc1)O2 (single isomer, unassigned) [Example 176]  774 nM
13. CC#C[C@@H](CC(=O)O)c1ccc2c(c1)OCC(c1ccc(-c3cc(OC)ccc3F)cc1)O2 (single isomer, unassigned) [Example 177]  870 nM
14. C[C@H](C(=O)O)[C@H](c1ccc2c(c1)OC(C1CN(Cc3cc(C(F)(F)F)ccc3C(F)(F)F)C1)CO2)C1CC1 (single isomer, unassigned) [Example 187]  1280 nM
